Columns and labels:
EKVX = experiment: Growth inhibition of human EKVX cells at 10 uM after 48 hrs by sulforhodamine B assay; assay type: functional; conditions: values are per cent of control
NCI-H226 = experiment: Growth inhibition of human NCI-H226 cells at 10 uM after 48 hrs by sulforhodamine B assay; assay type: functional; conditions: NCI-H226, 48 h, values are per cent of control
NCI-H23 = experiment: Growth inhibition of human NCI-H23 cells at 10 uM after 48 hrs by sulforhodamine B assay; assay type: functional; conditions: NCI-H23, 48 h, values are per cent of control
COLO 205 = experiment: Growth inhibition of human COLO205 cells at 10 uM after 48 hrs by sulforhodamine B assay; assay type: functional; conditions: COLO 205, 48 h, values are per cent of control
HCC 2998 = experiment: Growth inhibition of human HCC2998 cells at 10 uM after 48 hrs by sulforhodamine B assay; assay type: functional; conditions: HCC 2998, 48 h, values are per cent of control
SW-620 = experiment: Growth inhibition of human SW620 cells at 10 uM after 48 hrs by sulforhodamine B assay; assay type: functional; conditions: SW-620, 48 h, values are per cent of control
BT-549 = experiment: Growth inhibition of human BT549 cells at 10 uM after 48 hrs by sulforhodamine B assay; assay type: functional; conditions: BT-549, 48 h, values are per cent of control
NCI/ADR-RES = experiment: Growth inhibition of human NCI/ADR-RES cells at 10 uM after 48 hrs by sulforhodamine B assay; assay type: functional; conditions: values are per cent of control
T47D = experiment: Growth inhibition of human T47D cells at 10 uM after 48 hrs by sulforhodamine B assay; assay type: functional; conditions: values are per cent of control
OVCAR-3 = experiment: Growth inhibition of human OVCAR-3 cells at 10 uM after 48 hrs by sulforhodamine B assay; assay type: functional; conditions: OVCAR-3, 48 h, values are per cent of control
SK-OV-3 = experiment: Growth inhibition of human SKOV3 cells at 10 uM after 48 hrs by sulforhodamine B assay; assay type: functional; conditions: SK-OV-3, 48 h, values are per cent of control
HL-60(TB) = experiment: Growth inhibition of human HL-60(TB) cells at 10 uM after 48 hrs by sulforhodamine B assay; assay type: functional; conditions: HL-60, 48 h, read-out: GI
MOLT-4 = experiment: Growth inhibition of human MOLT4 cells at 10 uM after 48 hrs by sulforhodamine B assay; assay type: functional; conditions: MOLT-4, 48 h, values are per cent of control
SR = experiment: Growth inhibition of human SR cells at 10 uM after 48 hrs by sulforhodamine B assay; assay type: functional; conditions: values are per cent of control
Rattus norvegicus [1] = experiment: Antiinflammatory activity against carrageenan-induced paw edema in Wister albino rat assessed as inhibition of edema at 50 mg/kg, ip administered 1 hr prior to carrageenan challenge measured after 4 hrs relative to indomethacin; assay type: functional; conditions: route intraperitoneal
UO-31 = experiment: Growth inhibition of human UO31 cells at 10 uM after 48 hrs by sulforhodamine B assay; assay type: functional; conditions: UO-31, 48 h, values are per cent of control
M14 = experiment: Growth inhibition of human M14 cells at 10 uM after 48 hrs by sulforhodamine B assay; assay type: functional; conditions: M14, 48 h, values are per cent of control
SK-MEL-5 = experiment: Growth inhibition of human SK-MEL-5 cells at 10 uM after 48 hrs by sulforhodamine B assay; assay type: functional; conditions: SK-MEL-5, 48 h, values are per cent of control
DU-145 = experiment: Growth inhibition of human DU145 cells at 10 uM after 48 hrs by sulforhodamine B assay; assay type: functional; conditions: DU-145, 48 h, values are per cent of control
SF-268 = experiment: Growth inhibition of human SF268 cells at 10 uM after 48 hrs by sulforhodamine B assay; assay type: functional; conditions: SF-268, 48 h, values are per cent of control
SNB-19 = experiment: Growth inhibition of human SNB19 cells at 10 uM after 48 hrs by sulforhodamine B assay; assay type: functional; conditions: SNB-19, 48 h, values are per cent of control
Rattus norvegicus [2] = experiment: Antiinflammatory activity against carrageenan-induced paw edema in Wister albino rat assessed as inhibition of edema at 50 mg/kg, ip administered 1 hr prior to carrageenan challenge measured after 2 hrs relative to control; assay type: functional; conditions: route intraperitoneal
TK-10 = experiment: Growth inhibition of human TK10 cells at 10 uM after 48 hrs by sulforhodamine B assay; values are per cent of control; conditions: TK-10, 48 h

SMILES | growth, % of control at 10 µM (EKVX) [%] | growth, % of control at 10 µM (NCI-H226) [%] | growth, % of control at 10 µM (NCI-H23) [%] | growth, % of control at 10 µM (COLO 205) [%] | growth, % of control at 10 µM (HCC 2998) [%] | growth, % of control at 10 µM (SW-620) [%] | growth, % of control at 10 µM (BT-549) [%] | growth, % of control at 10 µM (NCI/ADR-RES) [%] | growth, % of control at 10 µM (T47D) [%] | growth, % of control at 10 µM (OVCAR-3) [%] | growth, % of control at 10 µM (SK-OV-3) [%] | growth, % of control at 10 µM (MOLT-4) [%] | growth, % of control at 10 µM (SR) [%] | activity relative to indomethacin (Rattus norvegicus [1]) [%] | growth, % of control at 10 µM (UO-31) [%] | growth, % of control at 10 µM (M14) [%] | growth, % of control at 10 µM (SK-MEL-5) [%] | growth, % of control at 10 µM (DU-145) [%] | growth, % of control at 10 µM (SF-268) [%] | growth, % of control at 10 µM (SNB-19) [%] | other results
[3H]C([3H])([3H])N1C(=O)[C@@]2(c3ccccc31)N(C)C[C@@H](c1ccc(OC)cc1)[C@@]21Cc2ccccc2C1=O | 67.3 | 78.7 | 84.5 | 104 | 104 | 83.3 | 101 | 96 | 93.3 | 92.5 | 99.4 | 107 | 125 | 8 | 75.5 | 94.1 | 88.1 | 128 | 108 | 94.1 | growth, % of control at 10 µM (HL-60(TB)): 170%; inhibition in vivo at 50 mg/kg (Rattus norvegicus [2]): 20.2%; growth, % of control at 10 µM (TK-10): 165%
[3H]N1C(=O)[C@@]2(c3ccccc31)N(C)C[C@@H](c1ccc(Cl)cc1)[C@@]21Cc2ccccc2C1=O | 52.5 | 73.7 | 75 | 84.8 | 95.7 | 76.2 | 121 | 64 | 81.8 | 78.6 | 91 | 57 | 167 | 32 | 62.7 | 82.9 | 112 | 103 | 90 | 89.9 | growth, % of control at 10 µM (HL-60(TB)): 76.7%; inhibition in vivo at 50 mg/kg (Rattus norvegicus [2]): 28.4%; growth, % of control at 10 µM (TK-10): 144%
[3H]N1C(=O)[C@@]2(c3ccccc31)N(C)C[C@@H](c1ccc(OC)cc1)[C@@]21Cc2ccccc2C1=O | 92.4 | 85.9 | 89.3 | 100 | 76.7 | 87.5 | 118 | 89.4 | 97.5 | 98.5 | 97.3 | 79.8 | 140 | 45 | 92.5 | 97.5 | 101 | 110 | 113 | 92.2 | growth, % of control at 10 µM (HL-60(TB)): 72.8%; inhibition in vivo at 50 mg/kg (Rattus norvegicus [2]): 17.5%; growth, % of control at 10 µM (TK-10): 176%
[3H]C([3H])([3H])N1C(=O)[C@@]2(c3ccccc31)N(C)C[C@@H](c1ccc(Cl)cc1)[C@@]21Cc2ccccc2C1=O | 72.6 | 63.2 | 58 | 70.5 | 88 | 67.8 | 111 | 79.4 | 75.8 | 69.3 | 86.6 | 87.5 | 51.4 | 18 | 66.1 | 76.6 | 87 | 91.1 | 81.1 | 89.9 | inhibition in vivo at 50 mg/kg (Rattus norvegicus [2]): 36.3%; growth, % of control at 10 µM (TK-10): 140%
[3H]N1C(=O)[C@@]2(c3ccccc31)N(C)C[C@@H](c1cccs1)[C@@]21Cc2ccccc2C1=O | 97.5 | 96.2 | 92 | 120 | 103 | 89.5 | 119 | 97.4 | 96 | 95.6 | 96.2 | 67.7 | 60.3 | 41 | 95.8 | 103 | 114 | 92 | 93.6 | 99.8 | growth, % of control at 10 µM (HL-60(TB)): 89.7%; inhibition in vivo at 50 mg/kg (Rattus norvegicus [2]): 39.1%; growth, % of control at 10 µM (TK-10): 144%
[3H]C([3H])([3H])N1C(=O)[C@@]2(c3ccccc31)N(C)C[C@@H](c1cccs1)[C@@]21Cc2ccccc2C1=O | 107 | 85.7 | 92 | 107 | 104 | 89.1 | 131 | 98.5 | 101 | 100 | 103 | 72.2 | 72.5 | 27 | 93.5 | 104 | 112 | 121 | 101 | 96.2 | growth, % of control at 10 µM (HL-60(TB)): 70%; inhibition in vivo at 50 mg/kg (Rattus norvegicus [2]): 10.8%; growth, % of control at 10 µM (TK-10): 149%
